In patent publication US8440637B2, “Combination treatment for the treatment of hepatitis C virus infection” (priority 2007, dated 2013):
Entries after “also recorded” stand apart in the source; their conditions may differ. Strand notation (5' to 3'): a small letter for the sugar, then the base; units joined by * are phosphorothioate-linked, units joined directly phosphodiester-linked; [ ] holds rarer units or linkages, { } end groups; capitals alone tell only the bases. l = locked nucleic acid (LNA); [5mC] = 5-methylcytosine; d = 2'-deoxy (DNA)

Assays:
[1] = test system: miR-122a; experiment: Melting temperature (Tm) of LNA anti-miR/miR-122a RNA duplex; type: physicochemical, human; details: for Tm, oligo to miR-122 RNA complement: miR-122a; for Tm (° C.): Table 2, towards synthetic miR-122a RNA oligonucleotide with phosphorothioate linkages, PS backbone
Protocol: The melting temperatures were assessed towards the mature miR-122a sequence, using a synthetic miR-122a RNA oligonucleotide with phosphorothioate linkaged.
The LNA anti-miR/miR-122a oligo duplex was diluted to 3 μM in 500 μl RNase free H2O, which was then mixed with 500 μl 2× dimerization buffer (final oligo/duplex conc. 1.5 μM, 2× Tm buffer: 200 mM NaCl, 0.2 mM EDTA, 20 mM NaP, pH 7.0, DEPC treated to remove RNases). The mix was first heated to 95 degrees for 3 minutes, then allowed to cool at room temperature (RT) for 30 minutes.
Following RT incubation Tm was measured on Lambda 40 UV/VIS Spectrophotometer with peltier temperature progammer PTP6 using PE Templab software (Perkin Elmer). The temperature was ramped up from 20° C. to 95° C. and then down again to 20° C., continuously recording absorption at 260 nm. First derivative and local maximums of both the melting and annealing was used to assess melting/annealing point (Tm), both should give similar/same Tm values. For the first derivative 91 points was used to calculate the slope.

[2] = test system: miR-122a target genes (Bckdk, aldolase A, Nrdg3, CD320, Vldlr); experiment: miR-122a target mRNA levels in mouse liver by qPCR; type: in vivo; details: for Bckdk and AldoA mRNA levels compared to SEQ ID NO: 61 treated mice (in words) / upregulation of miR-122a target genes Bckdk and AldoA (in words): liver, 48 hours after last dose (Day 6)
Protocol: The saline control and different LNA-antimiR-122a treated animals were sacrificed 48 hours after last dose (Day 6), and total RNA was extracted from liver samples as using Trizol reagent according to the manufacturer's recommendations (Invitrogen, USA). The mRNA levels were assessed by real-time quantitative RT-PCR for two miR-122a target genes, Bckdk (branched chain ketoacid dehydrogenase kinase, ENSMUSG00000030802) and aldolase A (aldoA, ENSMUSG00000030695), respectively, as well as for GAPDH as control, using Taqman assays according to the manufacturer's instructions (Applied biosystems, USA).
NMRI mice were administered intravenously with SEQ ID NO: 61 SEQ ID NO: 61 using daily doses ranging from 2.5 to 25 mg/kg for three consecutive days. Animals were sacrificed 24 hours, 1, 2 or 3 weeks after last dose. Livers were harvested divided into pieces and submerged in RNAlater (Ambion) or snap-frozen. RNA was extracted with Trizol reagent according to the manufacturer's instructions (Invitrogen) from the RNAlater tissue, except that the precipitated RNA was washed in 80% ethanol and not vortexed. The RNA was used for mRNA TaqMan qPCR according to manufacturer (Applied biosystems) or northern blot (see below). The snap-frozen pieces were cryo-sectioned for in situ hybridizations.
Mice were treated with different SEQ ID NO: 61 SEQ ID NO: 61 doses for three consecutive days, as described above and sacrificed 24 hours after last dose. Total RNA extracted from liver was subjected to qPCR. […] Total liver RNA from 2 to 3 mice per group sacrificed 24 hours after last dose were subjected to qPCR for the indicated genes. Shown in FIG. 9 is mRNA levels relative to Saline group, n=2-3 (2.5-12.5 mg/kg/day: n=2, no SD). Shown is also the mismatch control (m, SEQ ID NO: 65).
Assayed genes: Nrdg3 Aldo A, Bckdk, CD320 with predicted miR-122 target site.
NMRI female mice were treated with 25 mg/kg/day SEQ ID NO: 61SEQ ID NO: 61 along with saline control for three consecutive days and sacrificed 1, 2 or 3 weeks after last dose, respectively. RNA was extracted from livers and mRNA levels of predicted miR-122a target mRNAs, selected by microarray data were investigated by qPCR. Three animals from each group were analysed.
mRNA levels are normalized to the individual GAPDH levels and to the mean of the Saline treated group at each individual time point. Included are also the values from the animals sacrificed 24 hours after last dose. Shown is mean and standard deviation, n=3 (24 h n=3)
The same liver RNA samples as in previous example were investigated for Vldlr induction.
NMRI female mice were treated with indicated doses of LNA-antimiR (SEQ ID NO: 61) along with a mismatch control (m, SEQ ID NO: 65), saline and antagomir (SPC3595) for three consecutive days and sacrificed 24 hours after last dose (as in example 11 “old design”, n=5). miR-122 levels were analyzed by qPCR and normalized to the saline treated group.
mRNA quantification of selected genes was done using standard Tag Man assays (Applied Biosystems). The reverse transcription reaction was carried out with random decamers, 0.5 μg total RNA, and the M-MLV RT enzyme from Ambion according to a standard protocol. First strand cDNA was subsequently diluted 10 times in nuclease-free water before addition to the RT-PCR reaction mixture. A two-fold cDNA dilution series from liver total RNA of a saline-treated animal or mock transfected cells cDNA reaction (using 2.5 times more total RNA than in samples) served as standard to ensure a linear range (Ct versus relative copy number) of the amplification. Applied Biosystems 7500 or 7900 real-time PCR instrument was used for amplification.

In the case of “5′-AttGTcaCaCtCC-3′ (antisense lA*dT*dT*lG*lT*dC*dA*l[5mC]*dA*l[5mC]*dT*l[5mC]*l[5mC]) [SEQ ID NO: 66]”, the “Tm, oligo to miR-122 RNA complement” value [1] is reported as 74 °C, the “Bckdk and AldoA mRNA levels compared to SEQ ID NO: 61 treated mice (in words)” value [2] is reported as “significantly higher” and the “upregulation of miR-122a target genes Bckdk and AldoA (in words)” value (“upregulation” below) [2] is reported as “clear dose-dependent upregulation”.

For “5′-ccAttGtcAcaCtcCa-3′ (antisense CCATTGTCACACTCCA; sugars from the 5' end ddlddlddlddlddld, backbone and methylation of C not given here) [SEQ ID NO: 61]”, the “Tm (° C.)” value [1] was 69 °C, the “Tm, oligo to miR-122 RNA complement” value [1] was 69 °C and the “Vldlr induction in liver (in words)” value ([2]; 25 mg/kg/day for three consecutive days, 1, 2 or 3 weeks after last dose) was “transient up-regulation”. For the same substance, the “mRNA levels of predicted miR-122a target mRNAs over time (in words)” value ([2]; NMRI female mice, 25 mg/kg/day for three consecutive days, 1, 2 or 3 weeks after last dose) was “transient induction followed by a restoration of normal expression levels”, the “de-repression of miR-122 target mRNAs (AldoA, Bckdk, CD320, Nrdg3) (in words)” value ([2]; NMRI female mice, three consecutive days, 24 hours after last dose, compared to antagomir treated mice, listed as LNA-antimiR) was “dose-dependent de-repression; also recorded: consistently higher” and the “induction of miR-122a target genes (Nrdg3, Aldo A, Bckdk, CD320) (in words)” value ([2]; different doses for three consecutive days, 24 hours after last dose) was “clear dose-dependent induction”. For the same substance, the “upregulation” value [2] was “clear dose-dependent upregulation”.

With “5′-CcAttGTcaCaCtCC-3′ (antisense CCATTGTCACACTCC; sugars from the 5' end ldlddllddldldll, backbone and methylation of C not given here) [SEQ ID NO: 63]” the “Tm (° C.)” value [1] was 78 °C, the “Tm, oligo to miR-122 RNA complement” value [1] was 79 °C and the “Bckdk and AldoA mRNA levels compared to SEQ ID NO: 61 treated mice (in words)” value [2] was “significantly higher”. For the same substance, the “upregulation” value [2] was “clear dose-dependent upregulation”.
